Measurements from BindingDB's records for doi:10.1021/acs.jmedchem.9b00506 (Rapt Therapeutics, 2019).

Test: Antagonist activity at CCR4 in human CCRF-CEM cells assessed as inhibition of CCL22-mediated chemotaxis in presence of 100% human serum pre-incubated for 30 mins followed by CCL22 addition and measured after 60 mins by chemoTX probe based CellTiter-Glo assay

Point of comparison: `C[C@@H]1CC(c2cnc3c(C#N)nn([C@H](C)c4ccc(Cl)cc4Cl)c3n2)=CC[C@@H]1N1CCC[C@H]1CO`, IC50 70 nM. Against it:
- C[C@@H]1CC(c2cnc3c(C#N)nn([C@H](C)c4ccc(Cl)cc4Cl)c3n2)=CC[C@@H]1N1CCC[C@H]1C — 1.6-fold lower, 44 nM
- Cc1nn([C@H](C)c2ccc(Cl)cc2Cl)c2nc(N3CC[C@H](N4CCC[C@H]4CCC(N)=O)[C@H](C)C3)cnc12 — 5.1-fold higher, 355 nM
- Cc1nn([C@H](C)c2ccc(Cl)cc2Cl)c2nc(C3=CC[C@H](N4CCC[C@H]4CO)[C@H](C)C3)cnc12 — 2.6-fold higher, 179 nM
- C[C@@H]1CC(c2cnc3c(C#N)nn([C@H](C)c4ccc(Cl)cc4Cl)c3n2)=CC[C@@H]1N1CCC[C@H]1CN — 9.1-fold higher, 638 nM
- C[C@@H]1CC(c2cnc3c(C#N)nn([C@H](C)c4ccc(Cl)cc4Cl)c3n2)=CC[C@@H]1N1CCC[C@H]1C(N)=O — 20-fold higher, 1380 nM
- Cc1nn([C@H](C)c2ccc(Cl)cc2Cl)c2nc(N3CC[C@H](N4CCC[C@H]4CCS(N)(=O)=O)[C@H](C)C3)cnc12 — 3.7-fold higher, 259 nM
- C[C@@H]1CC(c2cnc3c(C#N)nn([C@H](C)c4ccc(Cl)cc4Cl)c3n2)=CC[C@@H]1N1CCC[C@H]1C(C)(C)O — 17-fold higher, 1200 nM
- Cc1nn([C@H](C)c2ccc(Cl)cc2Cl)c2nc(N3CC[C@H](N4CCC[C@H]4CCC#N)[C@H](C)C3)cnc12 — 12-fold higher, 865 nM
- Cc1nn([C@H](C)c2ccc(Cl)cc2Cl)c2nc(N3CC[C@H](N4CCCCC4)[C@H](C)C3)cnc12 — 5.2-fold higher, 361 nM

Test: Antagonist activity at CCR4 in anti-CD3/CD28 stimulated mouse Treg cells assessed as inhibition of CCL22-mediated chemotaxis in presence of 100% human serum pre-incubated for 30 mins followed by CCL22 addition and measured after 60 mins by chemoTX probe based CellTiter-Glo assay

Point of comparison: `C[C@@H]1CC(c2cnc3c(C#N)nn([C@H](C)c4ccc(Cl)cc4Cl)c3n2)=CC[C@@H]1N1CCC[C@H]1C`, IC50 325 nM. Against it:
- C[C@@H]1CC(c2cnc3c(C#N)nn([C@H](C)c4ccc(Cl)cc4Cl)c3n2)=CC[C@@H]1N1CCC[C@H]1CO — 2-fold lower, 165 nM
